Target: T1, Lysosomal acid glucosylceramidase (Homo sapiens, UniProt P04062)
T1 sequence (P04062 whole entry): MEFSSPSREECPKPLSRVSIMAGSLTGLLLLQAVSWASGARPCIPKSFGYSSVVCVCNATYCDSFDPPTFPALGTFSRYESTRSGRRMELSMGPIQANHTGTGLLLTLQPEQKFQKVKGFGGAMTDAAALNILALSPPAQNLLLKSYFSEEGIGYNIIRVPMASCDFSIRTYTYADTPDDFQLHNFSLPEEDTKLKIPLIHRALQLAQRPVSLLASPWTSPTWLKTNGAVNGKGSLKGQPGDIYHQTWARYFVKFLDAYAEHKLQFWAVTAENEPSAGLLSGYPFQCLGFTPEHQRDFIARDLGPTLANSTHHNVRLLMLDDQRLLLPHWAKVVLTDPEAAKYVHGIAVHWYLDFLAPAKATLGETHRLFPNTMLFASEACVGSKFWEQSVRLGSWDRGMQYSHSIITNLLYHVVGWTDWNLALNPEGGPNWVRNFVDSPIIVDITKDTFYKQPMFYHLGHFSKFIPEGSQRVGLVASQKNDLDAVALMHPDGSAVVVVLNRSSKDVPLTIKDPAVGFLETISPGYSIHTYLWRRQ
Assay: Inhibiton Assay
Details: pH 5.5; 37 °C
Procedure: Beta-glucocerebrosidase (GCase) activity was measured by release of 4-methylumbelliferyl fluorophore from MUClc.

| IC50 | SMILES |
| --- | --- |
| 7.8 µM | Cc1ccc(Sc2cccc3nc(N)nc(N)c23)cc1 |
| 61 µM | Nc1nc(N)c2cc([N+](=O)[O-])ccc2n1 [2,4-diamino-6-nitro-quinazoline, 1a] |
| 22 µM | CCOc1ccc2c(N)nc(N)nc2c1OCC [7,8-diethoxy-quinazoline 2,4-diamine, 1b] |

The next lines start with the compound.

| SMILES | IC50 |
| --- | --- |
| O=C(Nc1ccncc1)c1ccc(Oc2cc(Cl)cc(Cl)c2)o1 [5-(3,5-dichlorophenoxy)-N-(4-pyrdinyl)-2-furamide, 2] | 4.7 µM |
| CC(C)(C)C(=O)Nc1ccncc1 [2,2-dimethyl-N-(4-pyridinyl)propanamide, 2b] | > 400 µM |

Reference: BindingDB's records for doi:10.1002/cbic.200800304 (Research Institute, Hospital For Sick Children, 2008)
